# Tested on: monochoria (Mo)
# Experiment: Test Example 1: herbicidal effects by paddy field soil treatment;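 further: grade of growth control; 5 = at least 90%; 4 = 70 to 90%; 3 = 50 to 70%; 2 = 30 to 50%; 1 = 10 to 30%; 0 = under 10%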
# Format: in vivo
# Details: 100 g of the active ingredient per 10 ares, 21st day after the application, index 0-5 of Table 47
# How it was run: (§1)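 Greenhouse pot test in flooded paddy soil, dosed at 100 g a.i. per 10 ares; effect scored on day 21.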
row,Structure (SMILES),Herbicidal effects Mo
1,CCOCc1cc2c(-c3ccc(C(F)(F)F)n(C)c3=O)c(F)cc(Cl)c2o1 [Compound 4-31],5
2,CCOC(=O)C(C)Oc1cc(-c2ccc(C(F)(F)F)n(C)c2=O)c(F)cc1Cl (stereo not drawn) [1-21],5
3,CCSC(=O)c1cc(-c2ccc(C(F)(F)F)n(C)c2=O)c(F)cc1Cl [1-67],5
4,CC(=O)c1cc(-c2ccc(C(F)(F)F)n(C)c2=O)c(F)cc1Cl [Compound 1-190],5

# Tested on: barnyardgrass (Ec)
# Experiment: as above
# Format: in vivo
# Details: 100 g of the active ingredient per 10 ares, 21st day after the application, index 0-5 of Table 47
# How it was run: as §1
row,Structure (SMILES),Herbicidal effects Ec
1,CCOCc1cc2c(-c3ccc(C(F)(F)F)n(C)c3=O)c(F)cc(Cl)c2o1 [Compound 4-31],5
2,CCOC(=O)C(C)Oc1cc(-c2ccc(C(F)(F)F)n(C)c2=O)c(F)cc1Cl (stereo not drawn) [1-21],5
3,CCSC(=O)c1cc(-c2ccc(C(F)(F)F)n(C)c2=O)c(F)cc1Cl [1-67],5
4,CC(=O)c1cc(-c2ccc(C(F)(F)F)n(C)c2=O)c(F)cc1Cl [Compound 1-190],5

# Tested on: bulrush (Sc)
# Experiment: as above
# Format: in vivo
# Details: 100 g of the active ingredient per 10 ares, 21st day after the application, index 0-5 of Table 47
# How it was run: as §1
row,Structure (SMILES),Herbicidal effects Sc
1,CCOCc1cc2c(-c3ccc(C(F)(F)F)n(C)c3=O)c(F)cc(Cl)c2o1 [Compound 4-31],5
2,CCOC(=O)C(C)Oc1cc(-c2ccc(C(F)(F)F)n(C)c2=O)c(F)cc1Cl (stereo not drawn) [1-21],5
3,CCSC(=O)c1cc(-c2ccc(C(F)(F)F)n(C)c2=O)c(F)cc1Cl [1-67],5
4,CC(=O)c1cc(-c2ccc(C(F)(F)F)n(C)c2=O)c(F)cc1Cl [Compound 1-190],5

# Tested on: barnyardgrass (Ec)
# Experiment: Test Example 2: herbicidal effects by upland field soil treatment;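 further: grade of growth control; 5 = at least 90%; 4 = 70 to 90%; 3 = 50 to 70%; 2 = 30 to 50%; 1 = 10 to 30%; 0 = under 10%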
# Format: in vivo
# Details: 100 g of the active ingredient per 10 ares, 21st day after the application, index 0-5 of Table 47
# Text: (§2) (Test on Herbicidal Effects by Upland Field Soil Treatment)
row,Structure (SMILES),Herbicidal effects Ec
1,CCOC(=O)C(C)Oc1cc(-c2ccc(C(F)(F)F)n(C)c2=O)c(F)cc1Cl (stereo not drawn) [1-21],5
2,CCSC(=O)c1cc(-c2ccc(C(F)(F)F)n(C)c2=O)c(F)cc1Cl [1-67],5

# Same assay, conditions: 100 g of the active ingredient per 10 ares, evaluated on the 21st day after application
row,Structure (SMILES),Herbicidal effects Ec
1,CCOCc1cc2c(-c3ccc(C(F)(F)F)n(C)c3=O)c(F)cc(Cl)c2o1 [Compound 4-31],5
2,CC(=O)c1cc(-c2ccc(C(F)(F)F)n(C)c2=O)c(F)cc1Cl [Compound 1-190],5

# Tested on: common lambsquarters (Ch)
# Experiment: as above
# Format: in vivo
# Details: 100 g of the active ingredient per 10 ares, 21st day after the application, index 0-5 of Table 47
# Text: as §2
row,Structure (SMILES),Herbicidal effects Ch
1,CCOC(=O)C(C)Oc1cc(-c2ccc(C(F)(F)F)n(C)c2=O)c(F)cc1Cl (stereo not drawn) [1-21],5
2,CCSC(=O)c1cc(-c2ccc(C(F)(F)F)n(C)c2=O)c(F)cc1Cl [1-67],5

# Same assay, conditions: 100 g of the active ingredient per 10 ares, evaluated on the 21st day after application
row,Structure (SMILES),Herbicidal effects Ch
1,CCOCc1cc2c(-c3ccc(C(F)(F)F)n(C)c3=O)c(F)cc(Cl)c2o1 [Compound 4-31],5
2,CC(=O)c1cc(-c2ccc(C(F)(F)F)n(C)c2=O)c(F)cc1Cl [Compound 1-190],5

# Tested on: pale smartweed (Po)
# Experiment: as above
# Format: in vivo
# Details: 100 g of the active ingredient per 10 ares, 21st day after the application, index 0-5 of Table 47
# Text: as §2
row,Structure (SMILES),Herbicidal effects Po
1,CCOC(=O)C(C)Oc1cc(-c2ccc(C(F)(F)F)n(C)c2=O)c(F)cc1Cl (stereo not drawn) [1-21],5
2,CCSC(=O)c1cc(-c2ccc(C(F)(F)F)n(C)c2=O)c(F)cc1Cl [1-67],5

# Same assay, conditions: 100 g of the active ingredient per 10 ares, evaluated on the 21st day after application
row,Structure (SMILES),Herbicidal effects Po
1,CCOCc1cc2c(-c3ccc(C(F)(F)F)n(C)c3=O)c(F)cc(Cl)c2o1 [Compound 4-31],5
2,CC(=O)c1cc(-c2ccc(C(F)(F)F)n(C)c2=O)c(F)cc1Cl [Compound 1-190],5

# Tested on: slender amaranth (Am)
# Experiment: as above
# Format: in vivo
# Details: 100 g of the active ingredient per 10 ares, 21st day after the application, index 0-5 of Table 47
# Text: as §2
row,Structure (SMILES),Herbicidal effects Am
1,CCOC(=O)C(C)Oc1cc(-c2ccc(C(F)(F)F)n(C)c2=O)c(F)cc1Cl (stereo not drawn) [1-21],5
2,CCSC(=O)c1cc(-c2ccc(C(F)(F)F)n(C)c2=O)c(F)cc1Cl [1-67],5

# Same assay, conditions: 100 g of the active ingredient per 10 ares, evaluated on the 21st day after application
row,Structure (SMILES),Herbicidal effects Am
1,CCOCc1cc2c(-c3ccc(C(F)(F)F)n(C)c3=O)c(F)cc(Cl)c2o1 [Compound 4-31],5
2,CC(=O)c1cc(-c2ccc(C(F)(F)F)n(C)c2=O)c(F)cc1Cl [Compound 1-190],5

# Tested on: rice flatsedge (Ci)
# Experiment: as above
# Format: in vivo
# Details: 100 g of the active ingredient per 10 ares, 21st day after the application, index 0-5 of Table 47
# Text: as §2
row,Structure (SMILES),Herbicidal effects Ci
1,CCOC(=O)C(C)Oc1cc(-c2ccc(C(F)(F)F)n(C)c2=O)c(F)cc1Cl (stereo not drawn) [1-21],5
2,CCSC(=O)c1cc(-c2ccc(C(F)(F)F)n(C)c2=O)c(F)cc1Cl [1-67],5

# Same assay, conditions: 100 g of the active ingredient per 10 ares, evaluated on the 21st day after application
row,Structure (SMILES),Herbicidal effects Ci
1,CCOCc1cc2c(-c3ccc(C(F)(F)F)n(C)c3=O)c(F)cc(Cl)c2o1 [Compound 4-31],5
2,CC(=O)c1cc(-c2ccc(C(F)(F)F)n(C)c2=O)c(F)cc1Cl [Compound 1-190],5

# Tested on: Digitaria ciliaris (Di)
# Experiment: as above
# Format: in vivo
# Details: 100 g of the active ingredient per 10 ares, 21st day after the application, index 0-5 of Table 47
# Text: as §2
row,Structure (SMILES),Herbicidal effects Di
1,CCOC(=O)C(C)Oc1cc(-c2ccc(C(F)(F)F)n(C)c2=O)c(F)cc1Cl (stereo not drawn) [1-21],5
2,CCSC(=O)c1cc(-c2ccc(C(F)(F)F)n(C)c2=O)c(F)cc1Cl [1-67],5

# Same assay, conditions: 100 g of the active ingredient per 10 ares, evaluated on the 21st day after application
row,Structure (SMILES),Herbicidal effects Di
1,CCOCc1cc2c(-c3ccc(C(F)(F)F)n(C)c3=O)c(F)cc(Cl)c2o1 [Compound 4-31],5
2,CC(=O)c1cc(-c2ccc(C(F)(F)F)n(C)c2=O)c(F)cc1Cl [Compound 1-190],5

# Tested on: barnyardgrass (Ec)
# Experiment: Test Example 3: herbicidal effects by upland field foliage treatment
# Format: in vivo
# Set-up: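 grade of growth control; 5 = at least 90%; 4 = 70 to 90%; 3 = 50 to 70%; 2 = 30 to 50%; 1 = 10 to 30%; 0 = under 10%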
# Details: 100 g active ingredient per 10 ares, evaluated 14th day after treatment
# How it was run: (§3)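 Post-emergence upland foliage test. Seedlings grown 2 weeks under glass in pots (120 cm^2) of sand, seed topped with soil; treated on the foliage, kept in greenhouse, then assessed at day 14 using rating standards.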
row,Structure (SMILES),Herbicidal effects Ec
1,CCOCc1cc2c(-c3ccc(C(F)(F)F)n(C)c3=O)c(F)cc(Cl)c2o1 [Compound 4-31],5
2,CC(=O)c1cc(-c2ccc(C(F)(F)F)n(C)c2=O)c(F)cc1Cl [Compound 1-190],5

# Same assay, conditions: 100 g of the active ingredient per 10 ares, evaluated on the 14th day after treatment
row,Structure (SMILES),Herbicidal effects Ec
1,CCOC(=O)C(C)Oc1cc(-c2ccc(C(F)(F)F)n(C)c2=O)c(F)cc1Cl (stereo not drawn) [1-21],5
2,CCSC(=O)c1cc(-c2ccc(C(F)(F)F)n(C)c2=O)c(F)cc1Cl [1-67],5

# Tested on: common lambsquarters (Ch)
# Experiment: as above
# Format: in vivo
# Set-up: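 grade of growth control; 5 = at least 90%; 4 = 70 to 90%; 3 = 50 to 70%; 2 = 30 to 50%; 1 = 10 to 30%; 0 = under 10%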
# Details: 100 g active ingredient per 10 ares, evaluated 14th day after treatment
# How it was run: as §3
row,Structure (SMILES),Herbicidal effects Ch
1,CCOCc1cc2c(-c3ccc(C(F)(F)F)n(C)c3=O)c(F)cc(Cl)c2o1 [Compound 4-31],5
2,CC(=O)c1cc(-c2ccc(C(F)(F)F)n(C)c2=O)c(F)cc1Cl [Compound 1-190],5

# Same assay, conditions: 100 g of the active ingredient per 10 ares, evaluated on the 14th day after treatment
row,Structure (SMILES),Herbicidal effects Ch
1,CCOC(=O)C(C)Oc1cc(-c2ccc(C(F)(F)F)n(C)c2=O)c(F)cc1Cl (stereo not drawn) [1-21],5
2,CCSC(=O)c1cc(-c2ccc(C(F)(F)F)n(C)c2=O)c(F)cc1Cl [1-67],5

# Tested on: pale smartweed (Po)
# Experiment: as above
# Format: in vivo
# Set-up: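 grade of growth control; 5 = at least 90%; 4 = 70 to 90%; 3 = 50 to 70%; 2 = 30 to 50%; 1 = 10 to 30%; 0 = under 10%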
# Details: 100 g active ingredient per 10 ares, evaluated 14th day after treatment
# How it was run: as §3
row,Structure (SMILES),Herbicidal effects Po
1,CCOCc1cc2c(-c3ccc(C(F)(F)F)n(C)c3=O)c(F)cc(Cl)c2o1 [Compound 4-31],5
2,CC(=O)c1cc(-c2ccc(C(F)(F)F)n(C)c2=O)c(F)cc1Cl [Compound 1-190],5

# Same assay, conditions: 100 g of the active ingredient per 10 ares, evaluated on the 14th day after treatment
row,Structure (SMILES),Herbicidal effects Po
1,CCOC(=O)C(C)Oc1cc(-c2ccc(C(F)(F)F)n(C)c2=O)c(F)cc1Cl (stereo not drawn) [1-21],5
2,CCSC(=O)c1cc(-c2ccc(C(F)(F)F)n(C)c2=O)c(F)cc1Cl [1-67],5

# Tested on: slender amaranth (Am)
# Experiment: as above
# Format: in vivo
# Set-up: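 grade of growth control; 5 = at least 90%; 4 = 70 to 90%; 3 = 50 to 70%; 2 = 30 to 50%; 1 = 10 to 30%; 0 = under 10%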
# Details: 100 g active ingredient per 10 ares, evaluated 14th day after treatment
# How it was run: as §3
row,Structure (SMILES),Herbicidal effects Am
1,CCOCc1cc2c(-c3ccc(C(F)(F)F)n(C)c3=O)c(F)cc(Cl)c2o1 [Compound 4-31],5
2,CC(=O)c1cc(-c2ccc(C(F)(F)F)n(C)c2=O)c(F)cc1Cl [Compound 1-190],5

# Same assay, conditions: 100 g of the active ingredient per 10 ares, evaluated on the 14th day after treatment
row,Structure (SMILES),Herbicidal effects Am
1,CCOC(=O)C(C)Oc1cc(-c2ccc(C(F)(F)F)n(C)c2=O)c(F)cc1Cl (stereo not drawn) [1-21],5
2,CCSC(=O)c1cc(-c2ccc(C(F)(F)F)n(C)c2=O)c(F)cc1Cl [1-67],5

# Tested on: rice flatsedge (Ci)
# Experiment: as above
# Format: in vivo
# Set-up: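 grade of growth control; 5 = at least 90%; 4 = 70 to 90%; 3 = 50 to 70%; 2 = 30 to 50%; 1 = 10 to 30%; 0 = under 10%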
# Details: 100 g active ingredient per 10 ares, evaluated 14th day after treatment
# How it was run: as §3
row,Structure (SMILES),Herbicidal effects Ci
1,CCOCc1cc2c(-c3ccc(C(F)(F)F)n(C)c3=O)c(F)cc(Cl)c2o1 [Compound 4-31],5
2,CC(=O)c1cc(-c2ccc(C(F)(F)F)n(C)c2=O)c(F)cc1Cl [Compound 1-190],5

# Same assay, conditions: 100 g of the active ingredient per 10 ares, evaluated on the 14th day after treatment
row,Structure (SMILES),Herbicidal effects Ci
1,CCOC(=O)C(C)Oc1cc(-c2ccc(C(F)(F)F)n(C)c2=O)c(F)cc1Cl (stereo not drawn) [1-21],5
2,CCSC(=O)c1cc(-c2ccc(C(F)(F)F)n(C)c2=O)c(F)cc1Cl [1-67],5

# Tested on: Diaitaria ciliaris (Di)
# Experiment: as above
# Format: in vivo
# Set-up: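 grade of growth control; 5 = at least 90%; 4 = 70 to 90%; 3 = 50 to 70%; 2 = 30 to 50%; 1 = 10 to 30%; 0 = under 10%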
# Details: 100 g active ingredient per 10 ares, evaluated 14th day after treatment
# How it was run: as §3
row,Structure (SMILES),Herbicidal effects Di
1,CCOCc1cc2c(-c3ccc(C(F)(F)F)n(C)c3=O)c(F)cc(Cl)c2o1 [Compound 4-31],5
2,CC(=O)c1cc(-c2ccc(C(F)(F)F)n(C)c2=O)c(F)cc1Cl [Compound 1-190],5

# Same assay, conditions: 100 g of the active ingredient per 10 ares, evaluated on the 14th day after treatment
row,Structure (SMILES),Herbicidal effects Di
1,CCOC(=O)C(C)Oc1cc(-c2ccc(C(F)(F)F)n(C)c2=O)c(F)cc1Cl (stereo not drawn) [1-21],5
2,CCSC(=O)c1cc(-c2ccc(C(F)(F)F)n(C)c2=O)c(F)cc1Cl [1-67],5

# — US6472348B1, “Pyridone derivatives and herbicides” (Kumiai Chemical Industry Co., Ltd., priority 1996, dated 2002)
